Results taken from patent publication US12441703B2, “Carboxamides as modulators of sodium channels” (VERTEX PHARMACEUTICALS INCORPORATED, priority 2019, dated 2025).

target: human NaV 1.8 (Homo sapiens, UniProt Q9Y5Y9); assay: E-VIPR assay for detecting and measuring NaV inhibition properties; assay type: cell-based; settings: E-VIPR assay conducted in the absence of human serum (compounds marked *); HEK cells expressing truncated human NaV 1.8; read-out: IC50
Description: Sodium ion channels are voltage-dependent proteins that can be activated by inducing membrane voltage changes by applying electric fields. The electrical stimulation instrument and methods of use, referred to as E-VIPR, are described in International Publication No. WO 2002/008748 A3 and C.-J. Huang et al. Characterization of voltage-gated sodium channel blockers by electrical stimulation and fluorescence detection of membrane potential, 24 Nature Biotech. 439-46 (2006), both of which are incorporated by reference in their entirety. The instrument comprises a microtiter plate handler, an optical system for exciting the coumarin dye while simultaneously recording the coumarin and oxonol emissions, a waveform generator, a current- or voltage-controlled amplifier, and parallel electrode pairs that are inserted into assay plate wells. Under integrated computer control, this instrument passes user-programmed electrical stimulus protocols to cells within the wells of the microtiter plate.
16-20 hours prior to running the assay on E-VIPR, HEK cells expressing a truncated form of human NaV 1.8 with full channel activity were seeded into microtiter 384-well plates, pre-coated with matrigel, at a density of 25,000 cells per well. 2.5-5% KIR2.1 Bacmam virus was added to the final cell suspension before seeding into cell plates. HEK cells were grown in Dulbecco's Modified Eagle's Medium (DMEM) supplemented with 10% FBS (Fetal Bovine Serum, qualified; Sigma #F4135), 1% NEAA (Non-Essential Amino Acids, Gibco #11140), 1% HEPES (Gibco #15630), 1% Pen-Strep (Penicillin-Streptomycin; Gibco #15140) and 5 μg/ml Blasticidin (Gibco #R210-01). Cells were expanded in vented cap cell culture flasks, with 90-95% humidity and 5% CO2.
Compound Loading Buffer (2× concentration): Na/TMA Cl Bath1 Buffer containing HS (omitted in experiments run in the absence of human serum (HS)) 50%, VABSC-1 1 mM, BSA 0.2 mg/ml (in Bath-1), KCl 9 mM, DMSO 0.75%.
• 1) To reach the final concentration in each well, 400 nL of each compound was pre-spotted (in neat DMSO) into polypropylene compound plates at 250× desired final concentration from an intermediate stock concentration of 0.075 mM, in an 11 point dose response, 3-fold dilution, resulting in a top dose of 300 nM final concentration in the cell plate. Vehicle control (neat DMSO), and positive control (an established NaV1.8 inhibitor, 25 μM final in assay in DMSO) were added manually to the outermost columns of each plate respectively. The compound plate was backfilled with 45 μL per well of Compound Loading Buffer resulting in a 250 fold dilution of compound following a 1:1 transfer of compound into the cell plate (see Step 6). Final DMSO concentration for all wells in the assay was 0.625% (0.75% DMSO was supplemented to the Compound Loading Buffer for a final DMSO concentration of 0.625%). This assay dilution protocol was adjusted to enable a higher dose range to be tested in the presence of HS or if the final assay volume was altered. • 2) Hexyl Dye Solution was prepared. • 3) Cell plates were prepared. On the day of the assay, the media was aspirated, and the cells were washed three times with 80 μL of Bath-1 buffer, maintaining 25 μL residual volume in each well. • 4) 25 μL per well of Hexyl Dye Solution was dispensed into the cell plates. The cells were incubated for 20 minutes at room temperature or ambient conditions in darkness. • 5) 45 μL per well of Compound Loading Buffer was dispensed into compound plates. • 6) The cell plates were washed three times with 80 μL per well of Bath-1 Buffer, leaving 25 µL of residual volume. Then 25 μL per well from compound plate was transferred to each cell plate. The mixture was incubated for 30 minutes at room temperature/ambient conditions. • 7) The cell plate containing compound was read on E-VIPR using the current-controlled amplifier to deliver stimulation wave pulses using a symmetrical biphasic waveform. […]

Sequence of human NaV 1.8 (Q9Y5Y9 whole entry, looked up, the tested form may be a part): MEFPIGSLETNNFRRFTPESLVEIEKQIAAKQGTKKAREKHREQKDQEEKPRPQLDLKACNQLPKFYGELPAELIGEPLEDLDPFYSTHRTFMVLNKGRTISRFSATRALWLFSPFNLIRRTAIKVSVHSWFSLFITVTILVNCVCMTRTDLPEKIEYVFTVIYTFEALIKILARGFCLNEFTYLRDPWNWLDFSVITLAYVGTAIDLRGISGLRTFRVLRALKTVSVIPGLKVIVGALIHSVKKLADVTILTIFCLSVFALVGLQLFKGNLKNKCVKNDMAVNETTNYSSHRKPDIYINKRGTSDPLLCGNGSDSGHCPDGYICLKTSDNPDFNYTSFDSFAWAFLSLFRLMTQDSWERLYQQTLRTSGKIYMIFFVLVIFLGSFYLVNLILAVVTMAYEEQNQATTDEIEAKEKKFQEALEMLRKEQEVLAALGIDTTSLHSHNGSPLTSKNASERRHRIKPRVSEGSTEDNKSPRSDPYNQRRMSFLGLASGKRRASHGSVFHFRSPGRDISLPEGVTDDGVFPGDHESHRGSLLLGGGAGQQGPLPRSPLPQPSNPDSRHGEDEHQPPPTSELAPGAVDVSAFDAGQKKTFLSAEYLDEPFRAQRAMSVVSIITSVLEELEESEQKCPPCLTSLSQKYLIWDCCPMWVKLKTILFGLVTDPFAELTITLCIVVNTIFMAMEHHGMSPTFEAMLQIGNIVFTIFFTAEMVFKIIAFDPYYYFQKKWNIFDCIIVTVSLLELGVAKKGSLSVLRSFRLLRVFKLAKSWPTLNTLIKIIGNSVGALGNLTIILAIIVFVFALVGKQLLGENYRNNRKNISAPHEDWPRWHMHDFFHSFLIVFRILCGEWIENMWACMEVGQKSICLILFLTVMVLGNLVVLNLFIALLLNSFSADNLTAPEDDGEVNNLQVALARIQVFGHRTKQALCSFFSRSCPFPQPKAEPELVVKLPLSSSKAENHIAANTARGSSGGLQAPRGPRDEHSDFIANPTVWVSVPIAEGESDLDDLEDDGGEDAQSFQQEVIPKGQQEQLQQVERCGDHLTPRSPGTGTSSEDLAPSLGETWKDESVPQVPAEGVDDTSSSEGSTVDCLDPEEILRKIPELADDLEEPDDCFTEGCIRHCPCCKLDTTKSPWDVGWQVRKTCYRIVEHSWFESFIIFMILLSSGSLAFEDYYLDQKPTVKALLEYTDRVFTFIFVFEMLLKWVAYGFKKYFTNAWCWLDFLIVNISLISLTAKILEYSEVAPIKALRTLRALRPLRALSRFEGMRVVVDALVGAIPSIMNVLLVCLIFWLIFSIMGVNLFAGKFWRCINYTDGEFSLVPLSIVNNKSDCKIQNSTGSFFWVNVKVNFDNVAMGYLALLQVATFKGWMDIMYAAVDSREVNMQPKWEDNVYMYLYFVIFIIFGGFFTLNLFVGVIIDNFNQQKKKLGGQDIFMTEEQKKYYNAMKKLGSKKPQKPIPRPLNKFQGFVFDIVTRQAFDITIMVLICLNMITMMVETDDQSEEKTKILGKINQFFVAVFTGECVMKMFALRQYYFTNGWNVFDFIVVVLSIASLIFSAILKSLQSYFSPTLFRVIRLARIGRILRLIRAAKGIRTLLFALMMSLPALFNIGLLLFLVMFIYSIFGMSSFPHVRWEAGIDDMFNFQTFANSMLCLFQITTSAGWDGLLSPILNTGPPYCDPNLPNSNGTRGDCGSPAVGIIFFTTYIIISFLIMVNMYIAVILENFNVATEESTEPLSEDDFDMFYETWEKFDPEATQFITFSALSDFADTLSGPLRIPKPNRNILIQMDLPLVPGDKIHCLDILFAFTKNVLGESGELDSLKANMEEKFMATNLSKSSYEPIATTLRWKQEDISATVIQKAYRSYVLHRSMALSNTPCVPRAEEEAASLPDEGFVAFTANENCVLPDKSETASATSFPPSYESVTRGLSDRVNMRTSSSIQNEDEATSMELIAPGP

IC50 | Compound
46 nM | Cc1nc(C(C)(C)C)cc(Oc2ccc(F)cc2Cl)c1C(=O)Nc1ccnc(C(N)=O)c1 [Compound 364, 6-tert-butyl-N-(2-carbamoyl-4-pyridyl)-4-(2-chloro-4-fluoro-phenoxy)-2-methyl-pyridine-3-carboxamide]

same assay, conditions: E-VIPR assay conducted in the presence of human serum; HEK cells expressing truncated human NaV 1.8; read-out: IC50

Compound | IC50
COc1cc(F)ccc1Oc1ccc(C(F)(F)F)cc1C(=O)Nc1ccnc(C(N)=O)c1 [Compound 8, 4-[[2-(4-fluoro-2-methoxy-phenoxy)-5-(trifluoromethyl)benzoyl]amino]pyridine-2-carboxamide] | 510 nM
Cc1c(C(F)(F)F)ccc(Oc2ccc(OC(C)C)c(F)c2F)c1C(=O)Nc1ccnc(C(N)=O)c1 [Compound 121, 4-[[6-(2,3-difluoro-4-isopropoxy-phenoxy)-2-methyl-3-(trifluoromethyl)benzoyl]amino]pyridine-2-carboxamide] | 16 nM
[2H]C([2H])([2H])Oc1cc(OC(F)(F)F)ccc1Oc1cc(C2CCC(OC)CC2)cc(F)c1C(=O)Nc1ccnc(C(N)=O)c1 (single isomer, unassigned) [1017 (second diastereomer), 4-[[2-fluoro-4-(4-methoxycyclohexyl)-6-[2-(trideuteriomethoxy)-4-(trifluoromethoxy)phenoxy]benzoyl]amino]pyridine-2-carboxamide] | 17 nM
COc1cc(OC(F)(F)F)ccc1Oc1cc(Br)cc(F)c1C(=O)Nc1ccnc(C(N)=O)c1 [Compound 119, 4-[[4-bromo-2-fluoro-6-[2-methoxy-4-(trifluoromethoxy)phenoxy]benzoyl]amino]pyridine-2-carboxamide] | 8 nM
COc1cc(OC(F)(F)F)ccc1Oc1cc(C2CCC(C(F)(F)F)CC2)cc(F)c1C(=O)Nc1ccnc(C(N)=O)c1 (single isomer, unassigned) [168 (second diastereomer), 4-[[2-fluoro-6-[2-methoxy-4-(trifluoromethoxy)phenoxy]-4-[4-(trifluoromethyl)cyclohexyl]benzoyl]amino]pyridine-2-carboxamide] | 10 nM
COc1cc(OC(F)(F)F)ccc1Oc1cc(-c2ccoc2)ccc1C(=O)Nc1ccnc(C(N)=O)c1 [Compound 154, 4-[[4-(3-furyl)-2-[2-methoxy-4-(trifluoromethoxy)phenoxy]benzoyl]amino]pyridine-2-carboxamide] | 988 nM
CC(F)(F)c1cc(F)ccc1Oc1ccc(C(F)(F)F)c(F)c1C(=O)Nc1ccnc(C(N)=O)c1 [Compound 36, 4-[[6-[2-(1,1-difluoroethyl)-4-fluoro-phenoxy]-2-fluoro-3-(trifluoromethyl)benzoyl]amino]pyridine-2-carboxamide] | 180 nM
NC(=O)c1cc(NC(=O)c2cc(C(F)(F)F)ccc2Oc2cccc(C3CCCCC3)c2)ccn1 [Compound 14, 4-[[2-(3-cyclohexylphenoxy)-5-(trifluoromethyl)benzoyl]amino]pyridine-2-carboxamide] | > 3000 nM
Cc1cc(Cl)cc(Cl)c1Oc1ccc(C(F)(F)F)c(C)c1C(=O)Nc1ccnc(C(N)=O)c1 [Compound 142, 4-[[6-(2,4-dichloro-6-methyl-phenoxy)-2-methyl-3-(trifluoromethyl)benzoyl]amino]pyridine-2-carboxamide] | 1700 nM
Cc1cc(Cl)ccc1Oc1ccc(C(F)(F)F)c(F)c1C(=O)Nc1ccnc(C(N)=O)c1 [Compound 50, 4-[[6-(4-chloro-2-methyl-phenoxy)-2-fluoro-3-(trifluoromethyl)benzoyl]amino]pyridine-2-carboxamide] | 33 nM
Cc1c(Oc2ccc(C(F)(F)F)c(C)c2C(=O)Nc2ccnc(C(N)=O)c2)ccc(F)c1F [Compound 149, 4-[[6-(3,4-difluoro-2-methyl-phenoxy)-2-methyl-3-(trifluoromethyl)benzoyl]amino]pyridine-2-carboxamide] | 19 nM

Now from value to molecule:

IC50 | Compound
20 nM | COc1cc(Oc2ccc(F)c(F)c2C)c(C(=O)Nc2ccnc(C(N)=O)c2)c(F)c1C(F)(F)F [Compound 348, 4-[[6-(3,4-difluoro-2-methyl-phenoxy)-2-fluoro-4-methoxy-3-(trifluoromethyl)benzoyl]amino]pyridine-2-carboxamide]
4.7 nM | CCc1c(Oc2ccc(C(F)(F)F)c(F)c2C(=O)Nc2ccnc(C(N)=O)c2)ccc(OC(F)(F)F)c1F [Compound 344, 4-[[6-[2-ethyl-3-fluoro-4-(trifluoromethoxy)phenoxy]-2-fluoro-3-(trifluoromethyl)benzoyl]amino]pyridine-2-carboxamide]
20 nM | COc1cc(OC(F)(F)F)ccc1Oc1cc(OC)c(F)c(F)c1C(=O)Nc1ccnc(C(N)=O)c1 [Compound 263, 4-[[2,3-difluoro-4-methoxy-6-[2-methoxy-4-(trifluoromethoxy)phenoxy]benzoyl]amino]pyridine-2-carboxamide]
7.9 nM | COc1c(Oc2ccc(C(F)(F)F)c(C)c2C(=O)Nc2cc(C(N)=O)ncc2C)ccc(OC(F)(F)F)c1F [Compound 312, 4-[[6-[3-fluoro-2-methoxy-4-(trifluoromethoxy)phenoxy]-2-methyl-3-(trifluoromethyl)benzoyl]amino]-5-methyl-pyridine-2-carboxamide]
14 nM | Cc1cc(OC(F)(F)F)ccc1Oc1ccc(Cl)c(F)c1C(=O)Nc1ccnc(C(N)=O)c1 [Compound 286, 4-[[3-Chloro-2-Fluoro-6-[2-Methyl-4-(Trifluoromethoxy)Phenoxy]Benzoyl]Amino]Pyridine-2-Carboxamide]
33 nM | COc1cc(OC(F)(F)F)ccc1Oc1cnc(C(F)(F)F)c(C)c1C(=O)Nc1cnc(C(N)=O)nc1 [Compound 270, 5-[[5-[2-methoxy-4-(trifluoromethoxy)phenoxy]-3-methyl-2-(trifluoromethyl)pyridine-4-carbonyl]amino]pyrimidine-2-carboxamide]
0.4 nM | COc1cc(Oc2ccc(OC(F)(F)F)c(F)c2OC)c(C(=O)Nc2ccnc(C(N)=O)c2)c(F)c1C(F)(F)F [Compound 320, 4-[[2-fluoro-6-[3-fluoro-2-methoxy-4-(trifluoromethoxy)phenoxy]-4-methoxy-3-(trifluoromethyl)benzoyl]amino]pyridine-2-carboxamide]
16 nM | COc1cc(Oc2ccc(F)c(F)c2OC)c(C(=O)Nc2ccc(C(N)=O)nc2)c(F)c1C(F)(F)F [Compound 381, 5-[[6-(3,4-difluoro-2-methoxy-phenoxy)-2-fluoro-4-methoxy-3-(trifluoromethyl)benzoyl]amino]pyridine-2-carboxamide]
170 nM | [2H]C([2H])([2H])Oc1cc(OC(F)(F)F)ccc1Oc1cc(C2=CCC(OC)CC2)cc(F)c1C(=O)Nc1ccnc(C(N)=O)c1 (stereo not drawn) [Compound 1009, 4-[[2-fluoro-4-(4-methoxycyclohexen-1-yl)-6-[2-(trideuteriomethoxy)-4-(trifluoromethoxy)phenoxy]benzoyl]amino]pyridine-2-carboxamide]
610 nM | Cc1c(Oc2ccc(C(F)(F)F)c(C)c2C(=O)Nc2ccc(C(N)=O)nc2)ccc(F)c1F [Compound 227, 5-[[6-(3,4-difluoro-2-methyl-phenoxy)-2-methyl-3-(trifluoromethyl)benzoyl]amino]pyridine-2-carboxamide]
50 nM | COc1cc(OC(F)(F)F)ccc1Oc1cc(-c2ccc(C(C)(C)C)cc2)cc(F)c1C(=O)Nc1ccnc(C(N)=O)c1 [Compound 172]
66 nM | COc1cc(OC(F)(F)F)ccc1Oc1ccc(F)c(F)c1C(=O)Nc1cc(C(N)=O)ncc1C [Compound 260, 4-[[2,3-difluoro-6-[2-methoxy-4-(trifluoromethoxy)phenoxy]benzoyl]amino]-5-methyl-pyridine-2-carboxamide]
